Active and inactive are the calls of the source.
Experiments:
[1] = control 3'UTR Renilla luciferase suppression, dose response, counter-screen for Shn3 inhibitor project, cell-based, Clone20-Shn3RL, cherry-picked (AID 624133); type: functional
[2] = HepG2 cell cytotoxicity, dose response, cytotoxicity control for Shn3 inhibitor project, CellTiter-Glo, cherry-picked (AID 624134); type: functional, cell-based
[3] = Luminescence Cell-Based Dose Retest to Confirm Inhibitors of Cancer Stem Cells. [Related pubchem assays (depositor defined):AID2717, AID2721]; type: functional; details: Homo sapiens
[4] = cytotoxicity in HMLE control line with eGFP shRNA, dose response, counter-screen for HMLE_sh_ECad selective toxicity project, cell-based, HMLE_sh_eGFP, luminescence (AID 463074); type: functional, Homo sapiens;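 further: HMLE human mammary epithelial cells expressing control shRNA against eGFP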
[5] = target: E3 ubiquitin-protein ligase Mdm2 (Homo sapiens, UniProt Q00987); experiment: enhancers of MDM2-luciferase reporter signal, concentration-effect titration, project on inhibitors of MDM2 ubiquitin ligase, cellular assay, luminescent readout, 384-well plate format (AID 1394); type: functional;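 further: MDM2 E3 inhibitors raise luminescence so EC50 is for signal enhancement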
Sequence of E3 ubiquitin-protein ligase Mdm2 (Q00987 whole entry): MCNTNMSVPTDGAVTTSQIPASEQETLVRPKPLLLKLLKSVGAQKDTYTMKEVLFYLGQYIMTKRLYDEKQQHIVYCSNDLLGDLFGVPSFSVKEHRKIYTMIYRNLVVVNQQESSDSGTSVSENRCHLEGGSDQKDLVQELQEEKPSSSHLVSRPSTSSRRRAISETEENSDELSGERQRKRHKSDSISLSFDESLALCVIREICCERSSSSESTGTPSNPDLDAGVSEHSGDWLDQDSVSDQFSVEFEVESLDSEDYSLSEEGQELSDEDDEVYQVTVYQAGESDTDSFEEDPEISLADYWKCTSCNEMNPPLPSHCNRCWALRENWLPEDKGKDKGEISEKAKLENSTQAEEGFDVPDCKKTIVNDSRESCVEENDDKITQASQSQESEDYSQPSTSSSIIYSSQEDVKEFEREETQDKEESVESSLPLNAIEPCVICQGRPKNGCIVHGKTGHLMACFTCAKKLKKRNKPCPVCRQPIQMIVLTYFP

[6] = target: T1, Voltage-gated N-type calcium channel alpha-1B subunit/Amyloid beta A4 precursor protein-binding family A member 1 (Homo sapiens, UniProt Q00975+Q02410); type: protein assay
T1 sequence (Q00975 whole entry): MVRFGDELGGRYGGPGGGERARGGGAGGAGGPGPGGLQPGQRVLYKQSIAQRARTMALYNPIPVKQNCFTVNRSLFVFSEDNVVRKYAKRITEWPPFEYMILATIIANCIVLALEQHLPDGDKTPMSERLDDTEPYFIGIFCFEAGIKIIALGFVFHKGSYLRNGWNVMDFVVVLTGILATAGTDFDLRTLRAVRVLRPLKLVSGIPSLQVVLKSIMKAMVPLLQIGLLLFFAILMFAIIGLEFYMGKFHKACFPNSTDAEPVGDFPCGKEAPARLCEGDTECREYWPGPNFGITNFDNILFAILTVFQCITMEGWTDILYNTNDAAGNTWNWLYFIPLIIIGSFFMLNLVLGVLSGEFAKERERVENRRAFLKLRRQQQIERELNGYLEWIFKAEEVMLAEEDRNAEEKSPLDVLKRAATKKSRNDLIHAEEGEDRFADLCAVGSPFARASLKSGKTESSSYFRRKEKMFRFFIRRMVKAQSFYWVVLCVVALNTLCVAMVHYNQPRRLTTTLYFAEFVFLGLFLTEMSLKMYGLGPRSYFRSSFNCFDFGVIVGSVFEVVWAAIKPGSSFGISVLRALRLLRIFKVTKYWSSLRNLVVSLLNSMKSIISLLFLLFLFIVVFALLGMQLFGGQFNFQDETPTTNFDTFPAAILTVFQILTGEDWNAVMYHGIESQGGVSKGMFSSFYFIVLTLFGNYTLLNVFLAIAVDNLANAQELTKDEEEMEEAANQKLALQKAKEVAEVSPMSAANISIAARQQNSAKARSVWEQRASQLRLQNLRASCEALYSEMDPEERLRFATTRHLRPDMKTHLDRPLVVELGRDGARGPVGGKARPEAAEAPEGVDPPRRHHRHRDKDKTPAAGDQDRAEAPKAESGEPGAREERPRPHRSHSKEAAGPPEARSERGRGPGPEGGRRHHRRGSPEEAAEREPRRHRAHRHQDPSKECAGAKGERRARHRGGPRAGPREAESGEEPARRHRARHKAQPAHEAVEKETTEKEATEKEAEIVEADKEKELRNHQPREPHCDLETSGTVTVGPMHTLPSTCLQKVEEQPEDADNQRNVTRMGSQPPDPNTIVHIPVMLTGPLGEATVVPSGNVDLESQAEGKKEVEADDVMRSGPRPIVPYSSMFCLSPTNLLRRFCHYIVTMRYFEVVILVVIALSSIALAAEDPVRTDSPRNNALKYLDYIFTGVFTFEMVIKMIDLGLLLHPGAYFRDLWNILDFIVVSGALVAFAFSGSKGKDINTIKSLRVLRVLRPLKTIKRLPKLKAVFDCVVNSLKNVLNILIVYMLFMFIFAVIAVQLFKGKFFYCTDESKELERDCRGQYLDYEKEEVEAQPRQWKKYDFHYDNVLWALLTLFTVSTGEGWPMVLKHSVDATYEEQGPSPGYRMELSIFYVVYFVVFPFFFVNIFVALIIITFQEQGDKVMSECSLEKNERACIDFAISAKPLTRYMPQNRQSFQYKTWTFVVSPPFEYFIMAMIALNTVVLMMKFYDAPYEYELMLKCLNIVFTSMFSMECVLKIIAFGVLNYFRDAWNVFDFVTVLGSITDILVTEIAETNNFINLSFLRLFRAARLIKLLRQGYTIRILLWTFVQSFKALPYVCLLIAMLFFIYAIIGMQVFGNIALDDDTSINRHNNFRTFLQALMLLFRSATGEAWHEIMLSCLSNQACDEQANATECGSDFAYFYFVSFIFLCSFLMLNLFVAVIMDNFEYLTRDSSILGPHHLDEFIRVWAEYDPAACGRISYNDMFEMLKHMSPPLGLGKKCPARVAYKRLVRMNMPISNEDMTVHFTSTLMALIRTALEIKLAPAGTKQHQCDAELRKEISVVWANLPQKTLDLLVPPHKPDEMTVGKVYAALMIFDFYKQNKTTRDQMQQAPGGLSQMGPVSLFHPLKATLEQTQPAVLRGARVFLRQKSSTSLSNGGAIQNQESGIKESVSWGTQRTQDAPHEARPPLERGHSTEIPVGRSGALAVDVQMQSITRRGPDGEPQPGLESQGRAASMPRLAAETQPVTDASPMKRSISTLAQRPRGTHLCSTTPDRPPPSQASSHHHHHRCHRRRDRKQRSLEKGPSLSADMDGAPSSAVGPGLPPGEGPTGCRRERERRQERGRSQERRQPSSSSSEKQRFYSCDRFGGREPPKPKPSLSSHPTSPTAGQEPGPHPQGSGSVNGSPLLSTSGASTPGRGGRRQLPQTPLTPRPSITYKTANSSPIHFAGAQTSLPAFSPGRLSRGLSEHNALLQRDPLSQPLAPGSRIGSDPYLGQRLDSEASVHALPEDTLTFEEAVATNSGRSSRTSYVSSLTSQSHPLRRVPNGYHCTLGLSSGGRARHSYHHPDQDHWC
T1 sequence (Q02410 whole entry): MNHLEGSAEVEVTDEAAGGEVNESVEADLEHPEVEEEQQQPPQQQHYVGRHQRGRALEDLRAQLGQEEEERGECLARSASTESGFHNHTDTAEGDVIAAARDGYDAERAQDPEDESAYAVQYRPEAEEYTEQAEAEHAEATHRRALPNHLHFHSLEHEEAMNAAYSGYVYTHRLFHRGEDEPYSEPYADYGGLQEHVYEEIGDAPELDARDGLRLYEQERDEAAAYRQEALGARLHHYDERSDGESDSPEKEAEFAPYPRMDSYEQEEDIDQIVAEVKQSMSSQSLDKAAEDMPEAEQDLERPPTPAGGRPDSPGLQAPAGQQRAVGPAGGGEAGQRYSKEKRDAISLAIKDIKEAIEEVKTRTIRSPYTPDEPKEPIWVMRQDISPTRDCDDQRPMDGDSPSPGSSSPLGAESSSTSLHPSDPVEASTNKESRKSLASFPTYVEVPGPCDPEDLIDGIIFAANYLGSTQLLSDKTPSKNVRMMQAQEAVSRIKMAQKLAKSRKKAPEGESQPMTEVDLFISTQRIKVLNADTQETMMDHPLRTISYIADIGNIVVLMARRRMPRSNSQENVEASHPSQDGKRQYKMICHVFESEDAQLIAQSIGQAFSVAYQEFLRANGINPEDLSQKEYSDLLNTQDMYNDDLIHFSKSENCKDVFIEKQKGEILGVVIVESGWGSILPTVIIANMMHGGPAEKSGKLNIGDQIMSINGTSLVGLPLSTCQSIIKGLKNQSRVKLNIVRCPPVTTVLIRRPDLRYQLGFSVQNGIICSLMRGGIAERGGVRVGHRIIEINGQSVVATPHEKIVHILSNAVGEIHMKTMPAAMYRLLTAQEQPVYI

[7] = target: T1, Voltage-gated N-type calcium channel alpha-1B subunit/Amyloid beta A4 precursor protein-binding family A member 1; type: protein assay; remark: listed apart in the source
HEK293 [8] = experiment: cells; type: functional, cell-based; details: Homo sapiens
[9] = target: T2, Apoptotic protease-activating factor 1 (Homo sapiens, UniProt O14727); type: functional
T2 sequence (O14727 whole entry): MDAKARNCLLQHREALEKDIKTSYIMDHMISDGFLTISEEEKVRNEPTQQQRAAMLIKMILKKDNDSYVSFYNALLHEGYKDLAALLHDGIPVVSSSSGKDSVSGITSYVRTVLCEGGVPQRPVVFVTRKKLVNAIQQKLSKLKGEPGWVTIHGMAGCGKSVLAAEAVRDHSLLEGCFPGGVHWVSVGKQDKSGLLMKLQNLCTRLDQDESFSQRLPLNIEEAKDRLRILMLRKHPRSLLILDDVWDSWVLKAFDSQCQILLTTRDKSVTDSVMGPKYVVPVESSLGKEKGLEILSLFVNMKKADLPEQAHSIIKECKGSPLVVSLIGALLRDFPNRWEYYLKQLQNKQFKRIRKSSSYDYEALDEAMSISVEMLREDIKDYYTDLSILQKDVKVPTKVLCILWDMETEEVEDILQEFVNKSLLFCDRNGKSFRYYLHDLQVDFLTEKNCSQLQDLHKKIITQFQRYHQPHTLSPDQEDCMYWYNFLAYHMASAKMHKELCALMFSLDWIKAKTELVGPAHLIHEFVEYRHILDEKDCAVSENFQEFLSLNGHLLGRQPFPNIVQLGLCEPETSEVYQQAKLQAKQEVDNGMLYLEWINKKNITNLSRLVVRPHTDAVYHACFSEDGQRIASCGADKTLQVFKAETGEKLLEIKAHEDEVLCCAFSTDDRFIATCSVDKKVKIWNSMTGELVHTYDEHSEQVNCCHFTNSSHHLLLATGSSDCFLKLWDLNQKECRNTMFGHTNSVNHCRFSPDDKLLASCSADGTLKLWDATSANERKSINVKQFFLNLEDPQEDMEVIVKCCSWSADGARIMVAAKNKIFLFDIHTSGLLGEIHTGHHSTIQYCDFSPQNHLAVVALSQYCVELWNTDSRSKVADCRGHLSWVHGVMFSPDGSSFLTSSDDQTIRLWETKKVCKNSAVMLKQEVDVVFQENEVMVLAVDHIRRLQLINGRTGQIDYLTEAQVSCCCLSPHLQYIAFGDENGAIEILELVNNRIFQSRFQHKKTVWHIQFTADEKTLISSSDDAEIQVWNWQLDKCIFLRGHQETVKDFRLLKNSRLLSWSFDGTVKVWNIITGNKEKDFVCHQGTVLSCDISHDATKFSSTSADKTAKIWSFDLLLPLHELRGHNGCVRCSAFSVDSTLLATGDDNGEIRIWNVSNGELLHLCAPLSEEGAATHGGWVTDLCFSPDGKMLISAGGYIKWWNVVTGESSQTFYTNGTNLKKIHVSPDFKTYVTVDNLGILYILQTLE

HEK293 [10] = experiment: cells; type: functional, cell-based; details: Homo sapiens; remark: listed apart in the source
HEK293 [11] = experiment: cells; type: functional, cell-based; details: Homo sapiens; remark: listed apart in the source
[12] = target: Nucleotide-binding oligomerization domain-containing protein 2 (Homo sapiens, UniProt Q9HC29); experiment: NOD2 signaling inhibitors, cell-based, luminescence, uHTS, HEK293 (AID 1566); type: functional
HEK293 [13] = experiment: NOD1 signaling inhibitors, primary screen, cell-based, luminescence, uHTS (AID 1578); type: functional; details: Homo sapiens
HEK293 [14] = experiment: NOD2 signaling inhibitors in MDP-stimulated cells, cell-based, uHTS, luminescence (AID 2001); type: functional; details: Homo sapiens
[15] = Late-stage probe development counterscreen for inhibitors of the Hepatitis C Virus non-structural protein 3 helicase (NS3): luminescence-based cell-based dose response assay to determine whether compounds that inhibit replication of HCV RNA replicon are cytotoxic. [Related pubchem assays (depositor defined):AID1800, AID1830, AID1845, AID1943, AID1945, AID2172, AID2173, AID2474, AID2476]; type: functional
Cytochrome P450 1A2 = target: T3, Cytochrome P450 1A2 (Homo sapiens, UniProt P05177);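 further: PubChem cytochrome P450 panel assay, CYP1A2 panel member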
T3 sequence (P05177 whole entry): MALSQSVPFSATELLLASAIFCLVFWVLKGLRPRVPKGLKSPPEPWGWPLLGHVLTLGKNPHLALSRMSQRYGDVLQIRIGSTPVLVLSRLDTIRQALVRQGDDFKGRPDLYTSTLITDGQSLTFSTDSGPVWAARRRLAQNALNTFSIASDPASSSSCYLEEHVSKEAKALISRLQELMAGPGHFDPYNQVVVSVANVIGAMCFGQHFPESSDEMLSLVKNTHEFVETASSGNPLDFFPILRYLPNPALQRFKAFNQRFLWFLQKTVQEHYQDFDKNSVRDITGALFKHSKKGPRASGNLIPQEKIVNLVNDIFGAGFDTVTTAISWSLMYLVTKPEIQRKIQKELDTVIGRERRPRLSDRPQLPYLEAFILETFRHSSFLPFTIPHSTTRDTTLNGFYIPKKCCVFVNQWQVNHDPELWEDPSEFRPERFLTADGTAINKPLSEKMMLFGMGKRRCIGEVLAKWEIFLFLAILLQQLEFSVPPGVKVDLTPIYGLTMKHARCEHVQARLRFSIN

Cytochrome P450 2C19 = Cytochrome P450 2C19 (Homo sapiens, UniProt P33261); experiment: Cytochrome panel assay with activity outcomes. Panel member name: p450-cyp2c19 Compounds with AC50 equal or less than 10 uM are considered active; type: functional
Sequence of Cytochrome P450 2C19 (P33261 whole entry): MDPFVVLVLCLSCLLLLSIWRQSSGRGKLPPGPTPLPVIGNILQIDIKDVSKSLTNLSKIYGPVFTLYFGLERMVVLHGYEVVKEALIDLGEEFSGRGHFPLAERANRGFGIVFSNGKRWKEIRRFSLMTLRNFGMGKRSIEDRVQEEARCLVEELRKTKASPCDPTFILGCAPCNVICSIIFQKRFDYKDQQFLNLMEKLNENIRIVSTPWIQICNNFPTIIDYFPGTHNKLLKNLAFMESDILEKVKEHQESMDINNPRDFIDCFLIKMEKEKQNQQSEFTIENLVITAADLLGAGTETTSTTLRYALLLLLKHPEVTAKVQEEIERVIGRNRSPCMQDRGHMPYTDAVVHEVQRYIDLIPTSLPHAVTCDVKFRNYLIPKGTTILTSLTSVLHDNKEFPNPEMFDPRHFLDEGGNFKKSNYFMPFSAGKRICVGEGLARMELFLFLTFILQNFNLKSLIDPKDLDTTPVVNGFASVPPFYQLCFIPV

[16] = growth induction of Burl-1 ts yeast mutant, dose response, counter-screen for SUMOylation pathway inhibitor project, whole organism, S. cerevisiae, luminescence (AID 463199); type: functional

O=C1N/C(=C/c2ccc(N3CCOCC3)o2)C(=O)N1c1ccccc1
AC50 [1]: 5.03 µM (active) | AC50 [2]: > 70 µM (inactive) | AC50 [3]: > 195 µM (inactive) | AC50 [4]: 45.7 µM (active) | EC50 [5]: 6.73 µM (not active)

CCCCCCc1cc2cc(-c3nnc(-c4ccccc4OC)o3)c(=O)oc2cc1O
IC50 [6]: > 50 µM (inactive) | IC50 [7]: > 56.8 µM (not active) | IC50 (HEK293 [8]): > 20 µM (inactive) | IC50 [9]: 15.9 µM (active) | IC50 (HEK293 [10]): 9.41 µM (active) | IC50 (HEK293 [11]): > 20 µM (inactive) | EC50 [12]: > 20 µM (inactive) | EC50 (HEK293 [13]): 6.54 µM (active) | IC50 (HEK293 [14]): 8.48 µM (active)

COc1ccc(C=NNC(=O)c2cc(O)c(O)c(O)c2)cc1COc1ccc(C(=O)OCC(C)C)cc1
CC50 [15]: > 100 µM (inactive)

Oc1nncc(-c2ccccc2)n1
AC50 (Cytochrome P450 1A2): 14.1 µM (inconclusive) | AC50 (Cytochrome P450 2C19): inconclusive | AC50 [16]: 58.5 µM (active)

Source: ChEMBL document CHEMBL1201862, “PubChem BioAssay data set” (2004)
